The record followed here is patent US20090105217A1, “2-PHENYL-5-AMINO-1,3,4-OXADIAZOLES AND THEIR USE AS NICOTINIC ACETYLCHOLINE RECEPTOR LIGANDS” (priority 2007, published 2009).

Molecules are shown by their SMILES. Bounds are passed on as bounds.

The target in this assay is T1, human α7 nAChR (Homo sapiens, UniProt P36544).
T1 construct: host or cells: GH4C1 cells (pituitary tumor, immortalized cell line)
The assay is described as follows: α7 nAChR FLIPR (Fluorometric Imaging Plate Reader) Ca2+ assay, agonist EC50. The format is cell-based. Particulars: GH4C1 cells stably transfected with human α7 nAChR; Fluo-4 Ca2+ fluorescence; Examples 194 to 205 tested as the HCl salt; read-out: pEC50 value (negative logarithm of the agonist EC50) (converted). Here is the method: α7 nAChR FLIPR® (Fluorometric Imaging Plate Reader) Assay
Function of the heterologous expressed α7 nAChR was assessed by a FLIPR-Ca^2+ assay. Since nAChRs are non-selective cation channels with high permeability to Ca^2+, these studies were carried out by measuring changes of intracellular Ca^2+ concentration using the Ca^2+-chelating fluorescent dye Fluo-4 and FLIPR® (Fluorometric Imaging Plate Reader) technology.
GH4C1cells (pituitary tumor, immortalized cell line) stably transfected with human α7 nAChR (Biocat ID 96986), were thawed, suspended in growth medium (Ham's Nutrient Mixture F10—Ham's F10, Invitrogen 31550-023, 15% Horse Serum heat inactivated—Invitrogen 26050-047, 2.5% Foetal Bovine Serum—FBS, Gibco 10500-064, 200 μg/ml Hygromycin B—Invitrogen, 10687-010, 10 mg/L Phenol Red—Sigma, P 0290, 1 mM Glutamine—Invitrogen, 25030-024) and plated in 500 cm^2 Triple Flask.
Cells were then incubated at 30° C., 5% CO2 for 72 hours.
On the day of the experiment, cells were washed twice with Assay Buffer (AB) (145 mM NaCl, 5 mM KCl, 1 mM MgCl2, 2 mM CaCl2, 20 mM HEPES, 5.5 mM Glucose pH=7.3) containing 2.5 mM Probenecid. Changes in the intracellular Ca^2+ content of stably transfected cells were measured using the Ca^2+ chelating dye Fluo-4 (Tef Labs 0152) in conjunction with a FLIPR® (Molecular Devices). The cell permeant dye Fluo-4 was prepared to a concentration of 1 mM in 100% DMSO and 10% Pluronic acid. The dye was then diluted with AB to a final concentration of 2 μM and placed on the cells. After 45-60 minutes dye loading incubation at 37° C., the unincorporated dye was removed from the cells by washing (80 μL, 3 times) with AB, and a final volume of 30 μL/well of AB was left in each well.
Plates containing test compounds (dissolved in 100% DMSO at 2 mM and serially diluted with DMSO) were copied into “daughter” plates (1 μL/well dispensation). Just prior to starting the assay, the “daughter” plate was diluted with 50 μL/well of AB.
The plates were then placed in the FLIPR®, and cell fluorescence was determined before drug addition (30 seconds) and monitored (excitation 488 nm, emission 510-580 nm) immediately following exposure to compounds. Maximum fluorescence values were recorded and fitted for agonist EC50 calculations.
The results are expressed as pEC50 values. A pEC50 is the negative logarithm of the agonist EC50 calculation as determined in the α7 nAChR FLIPR® assay. […] Variations in pEC50 may arise between tests.

T1 sequence (P36544 23-502): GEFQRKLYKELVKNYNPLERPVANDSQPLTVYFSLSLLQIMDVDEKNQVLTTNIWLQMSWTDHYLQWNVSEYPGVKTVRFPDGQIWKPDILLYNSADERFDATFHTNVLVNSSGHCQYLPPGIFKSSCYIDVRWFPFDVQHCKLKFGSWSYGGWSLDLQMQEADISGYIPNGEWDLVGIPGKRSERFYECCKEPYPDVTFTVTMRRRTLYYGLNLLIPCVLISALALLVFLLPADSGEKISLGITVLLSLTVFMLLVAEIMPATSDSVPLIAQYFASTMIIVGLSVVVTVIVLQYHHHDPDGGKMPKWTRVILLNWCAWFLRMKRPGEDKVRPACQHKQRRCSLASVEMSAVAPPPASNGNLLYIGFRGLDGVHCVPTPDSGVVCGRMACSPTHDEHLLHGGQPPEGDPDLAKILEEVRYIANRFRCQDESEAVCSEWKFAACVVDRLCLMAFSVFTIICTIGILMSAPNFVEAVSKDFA

Usually EC50 stands for the concentration that produces a half-maximal response. For `O=C(Nc1ccc(-c2nnc(NCCCCN3CCCCC3)o2)c(C(F)(F)F)c1)c1ccccc1F` [Example 90, 2-fluoro-N-[4-(5-{[4-(1-piperidinyl)butyl]amino]-1,3,4-oxadiazol-2-yl)-3-(trifluoromethyl)phenyl]benzamide], the EC50 was at most 100 nM.
On to `O=C(Nc1ccc(-c2nnc(NCCCN3CCCC3)o2)c(C(F)(F)F)c1)c1ccccc1` [Example 91, N-[4-(5-{[3-(1-pyrrolidinyl)propyl]amino}-1,3,4-oxadiazol-2-yl)-3-(trifluoromethyl)phenyl]benzamide], for which the EC50 was at most 1000 nM.
Next, `O=C(Nc1ccc(-c2nnc(NCCCCN3CCCC3)o2)c(C(F)(F)F)c1)c1ccccc1` [Example 92, N-[4-(5-{[4-(1-pyrrolidinyl)butyl]amino}-1,3,4-oxadiazol-2-yl)-3-(trifluoromethyl)phenyl]benzamide]: at most 100 nM; `O=C(Nc1ccc(-c2nnc(NCCCN3CCOCC3)o2)c(C(F)(F)F)c1)c1ccccc1` [Example 93, N-[4-(5-{[3-(4-morpholinyl)propyl]amino}-1,3,4-oxadiazol-2-yl)-3-(trifluoromethyl)phenyl]benzamide]: at most 1000 nM.
For the molecule `O=C(Nc1ccc(-c2nnc(NCCCCN3CCOCC3)o2)c(C(F)(F)F)c1)c1ccccc1` [Example 94, N-[4-(5-{[4-(4-morpholinyl)butyl]amino}-1,3,4-oxadiazol-2-yl)-3-(trifluoromethyl)phenyl]benzamide], the EC50 is at most 100 nM.
Turning to `CCN(CC)CCCNc1nnc(-c2ccc(NC(=O)c3ccccc3)cc2C(F)(F)F)o1` [Example 95, N-[4-(5-{[3-(diethylamino)propyl]amino}-1,3,4-oxadiazol-2-yl)-3-(trifluoromethyl)phenyl]benzamide], the EC50 was at most 1000 nM.
For `CCN(CC)CCCCNc1nnc(-c2ccc(NC(=O)c3ccccc3)cc2C(F)(F)F)o1` [Example 96, N-[4-(5-{[4-(diethylamino)butyl]amino}-1,3,4-oxadiazol-2-yl)-3-(trifluoromethyl)phenyl]benzamide], the EC50 was at most 100 nM.
Next, `O=C(Nc1ccc(-c2nnc(NCCCN3CCCCC3)o2)c(C(F)(F)F)c1)c1ccccc1` [Example 97, N-[4-(5-{[3-(1-piperidinyl)propyl]amino}-1,3,4-oxadiazol-2-yl)-3-(trifluoromethyl)phenyl]benzamide]: at most 1000 nM; `O=C(Nc1ccc(-c2nnc(NCCCCN3CCCCC3)o2)c(C(F)(F)F)c1)c1ccccc1` [Example 98, N-[4-(5-{[4-(1-piperidinyl)butyl]amino}-1,3,4-oxadiazol-2-yl)-3-(trifluoromethyl)phenyl]benzamide]: at most 100 nM; `O=C(Nc1ccc(-c2nnc(NCCCN3CCCC3)o2)c(Cl)c1)c1ccccc1` [Example 99]: at most 1000 nM.
The same measure for `O=C(Nc1ccc(-c2nnc(NCCCCN3CCCC3)o2)c(Cl)c1)c1ccccc1` [Example 100, N-[3-chloro-4-(5-{[4-(1-pyrrolidinyl)butyl]amino}-1,3,4-oxadiazol-2-yl)phenyl]benzamide]: at most 100 nM.
Consider `O=C(Nc1ccc(-c2nnc(NCCCN3CCOCC3)o2)c(Cl)c1)c1ccccc1` [Example 101, N-[3-chloro-4-(5-{[3-(4-morpholinyl)propyl]amino}-1,3,4-oxadiazol-2-yl)phenyl]benzamide], for which the EC50 was at most 1000 nM.
The same measure for `O=C(Nc1ccc(-c2nnc(NCCCCN3CCOCC3)o2)c(Cl)c1)c1ccccc1` [Example 102, N-[3-chloro-4-(5-{[4-(4-morpholinyl)butyl]amino}-1,3,4-oxadiazol-2-yl)phenyl]benzamide]: at most 100 nM.
Next, `CCN(CC)CCCNc1nnc(-c2ccc(NC(=O)c3ccccc3)cc2Cl)o1` [Example 103, N-[3-chloro-4-(5-{[3-(diethylamino)propyl]amino}-1,3,4-oxadiazol-2-yl)phenyl]benzamide]: at most 1000 nM; `CCN(CC)CCCCNc1nnc(-c2ccc(NC(=O)c3ccccc3)cc2Cl)o1` [Example 104, N-[3-chloro-4-(5-{[4-(diethylamino)butyl]amino}-1,3,4-oxadiazol-2-yl)phenyl]benzamide]: at most 100 nM.
Next, `O=C(Nc1ccc(-c2nnc(NCCCN3CCCCC3)o2)c(Cl)c1)c1ccccc1` [Example 105, N-[3-chloro-4-(5-{[3-(1-piperidinyl)propyl]amino}-1,3,4-oxadiazol-2-yl)phenyl]benzamide]: at most 1000 nM; `O=C(Nc1ccc(-c2nnc(NCCCCN3CCCCC3)o2)c(Cl)c1)c1ccccc1` [Example 106, N-[3-chloro-4-(5-{[4-(1-piperidinyl)butyl]amino}-1,3,4-oxadiazol-2-yl)phenyl]benzamide]: at most 100 nM.
For `O=C(Nc1ccc(-c2nnc(NCCCN3CCCC3)o2)c(F)c1)c1ccccc1` [Example 107, N-[3-fluoro-4-(5-{[3-(1-pyrrolidinyl)propyl]-amino}-1,3,4-oxadiazol-2-yl)phenyl]benzamide], the EC50 is at most 1000 nM.
Consider `O=C(Nc1ccc(-c2nnc(NCCCCN3CCCC3)o2)c(F)c1)c1ccccc1` [Example 108, N-[3-fluoro-4-(5-{[4-(1-pyrrolidinyl)butyl]amino}-1,3,4-oxadiazol-2-yl)phenyl]benzamide], for which the EC50 is at most 100 nM.
Regarding `CCN(CC)CCCNc1nnc(-c2ccc(NC(=O)c3ccccc3)cc2F)o1` [Example 111, N-[4-(5-{[3-(diethylamino)propyl]amino}-1,3,4-oxadiazol-2-yl)-3-fluorophenyl]benzamide], the EC50 was at most 1000 nM.
Turning to `CCN(CC)CCCCNc1nnc(-c2ccc(NC(=O)c3ccccc3)cc2F)o1` [Example 112, N-[4-(5-{[4-(diethylamino)butyl]amino}-1,3,4-oxadiazol-2-yl)-3-fluorophenyl]benzamide], the EC50 was at most 100 nM.
On to `O=C(Nc1ccc(-c2nnc(NCCCN3CCCCC3)o2)c(F)c1)c1ccccc1` [Example 113, N-[3-fluoro-4-(5-{[3-(1-piperidinyl)propyl]amino}-1,3,4-oxadiazol-2-yl)phenyl]benzamide], for which the EC50 is at most 1000 nM.
As for `O=C(Nc1ccc(-c2nnc(NCCCCN3CCCCC3)o2)c(F)c1)c1ccccc1` [Example 114, N-[3-fluoro-4-(5-{[4-(1-piperidinyl)butyl]amino}-1,3,4-oxadiazol-2-yl)phenyl]benzamide], the EC50 was at most 100 nM.
Regarding `O=C(Nc1ccc(-c2nnc(NCCCCN3CCCC3)o2)cc1)c1ccccc1` [Example 115, N-[4-(5-{[4-(1-pyrrolidinyl)butyl]amino}-1,3,4-oxadiazol-2-yl)phenyl]benzamide], the concentration for a half-maximal effect (EC50) was at most 100 nM.
Next, `O=C(Nc1ccc(-c2nnc(NCCCCN3CCOCC3)o2)cc1)c1ccccc1` [Example 116, N-[4-(5-{[4-(4-morpholinyl)butyl]amino}-1,3,4-oxadiazol-2-yl)phenyl]benzamide]: at most 1000 nM.
The same measure for `O=C(Nc1ccc(-c2nnc(NCCCN3CCOCC3)o2)cc1)c1ccccc1` [Example 117, N-[4-(5-{[3-(4-morpholinyl)propyl]amino}-1,3,4-oxadiazol-2-yl)phenyl]benzamide]: at most 1000 nM; for `CCN(CC)CCCNc1nnc(-c2ccc(NC(=O)c3ccccc3)cc2)o1` [Example 118, N-[4-(5-{[3-(diethylamino)propyl]amino}-1,3,4-oxadiazol-2-yl)phenyl]benzamide]: at most 1000 nM.
